Data reported in patent US10231954B2, “Neurodegenerative therapies” (LYTIX BIOPHARMA AS, priority 2014, dated 2019).

Experiments:
Assay type in all cases: biochemical
[1] = molecular target: MKK1 (Homo sapiens, UniProt Q02750); assay: Kinase profiling MKK1
Excerpt: (§1) Any value less that 25 is considered to be highly significant inhibition.

[2] = molecular target: ERK2 (Homo sapiens, UniProt P28482); assay: Kinase profiling ERK2; conditions: 100 micromolar inhibitor concentration; 100 is no change
Chain of ERK2 (P28482 whole entry, species assumed): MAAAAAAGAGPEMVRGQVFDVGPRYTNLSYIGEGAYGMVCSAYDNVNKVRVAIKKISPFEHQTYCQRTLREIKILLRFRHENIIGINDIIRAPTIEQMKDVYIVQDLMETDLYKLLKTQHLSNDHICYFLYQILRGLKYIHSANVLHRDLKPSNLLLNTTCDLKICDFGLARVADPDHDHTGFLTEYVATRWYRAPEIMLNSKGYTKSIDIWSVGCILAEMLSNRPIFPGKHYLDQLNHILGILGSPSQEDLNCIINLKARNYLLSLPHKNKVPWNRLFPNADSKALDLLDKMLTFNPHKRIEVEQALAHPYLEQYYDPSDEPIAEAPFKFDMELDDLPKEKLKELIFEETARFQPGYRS
Excerpt: as §1

[3] = molecular target: JNK3 (Homo sapiens, UniProt P53779); assay: Kinase profiling JNK3; conditions: 100 micromolar inhibitor concentration; 100 is no change
Chain of JNK3 (P53779 whole entry, species assumed): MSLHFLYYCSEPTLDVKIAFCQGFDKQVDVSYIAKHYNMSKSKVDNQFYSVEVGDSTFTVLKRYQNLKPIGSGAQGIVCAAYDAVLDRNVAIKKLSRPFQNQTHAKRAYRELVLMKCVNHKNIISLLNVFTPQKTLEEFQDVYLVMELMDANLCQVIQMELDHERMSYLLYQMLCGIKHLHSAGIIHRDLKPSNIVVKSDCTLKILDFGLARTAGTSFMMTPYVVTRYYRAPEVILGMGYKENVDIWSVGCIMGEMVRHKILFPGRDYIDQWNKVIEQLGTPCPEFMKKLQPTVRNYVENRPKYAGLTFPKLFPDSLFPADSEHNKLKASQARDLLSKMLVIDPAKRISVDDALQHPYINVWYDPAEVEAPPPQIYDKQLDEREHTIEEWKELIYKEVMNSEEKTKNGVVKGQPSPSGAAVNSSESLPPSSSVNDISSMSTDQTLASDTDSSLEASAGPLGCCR
Excerpt: as §1

[4] = molecular target: T1, p38g MAPK (Homo sapiens, UniProt P53778); assay: Kinase profiling p38g MAPK; conditions: 100 micromolar inhibitor concentration; 100 is no change
T1 sequence (P53778 1-367): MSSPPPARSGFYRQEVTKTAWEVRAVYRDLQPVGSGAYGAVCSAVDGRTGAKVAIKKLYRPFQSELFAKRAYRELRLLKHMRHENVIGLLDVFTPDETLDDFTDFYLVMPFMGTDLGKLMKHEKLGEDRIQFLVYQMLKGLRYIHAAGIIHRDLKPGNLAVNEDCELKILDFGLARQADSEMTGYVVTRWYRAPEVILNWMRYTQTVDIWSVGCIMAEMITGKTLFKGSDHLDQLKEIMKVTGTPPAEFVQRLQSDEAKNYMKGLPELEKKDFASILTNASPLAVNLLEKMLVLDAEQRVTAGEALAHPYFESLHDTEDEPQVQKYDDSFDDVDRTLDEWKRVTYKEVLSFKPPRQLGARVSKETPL
Excerpt: as §1

[5] = molecular target: T2, SGK1 (Homo sapiens, UniProt O00141); assay: Kinase profiling SGK1
T2 sequence (O00141 1-431): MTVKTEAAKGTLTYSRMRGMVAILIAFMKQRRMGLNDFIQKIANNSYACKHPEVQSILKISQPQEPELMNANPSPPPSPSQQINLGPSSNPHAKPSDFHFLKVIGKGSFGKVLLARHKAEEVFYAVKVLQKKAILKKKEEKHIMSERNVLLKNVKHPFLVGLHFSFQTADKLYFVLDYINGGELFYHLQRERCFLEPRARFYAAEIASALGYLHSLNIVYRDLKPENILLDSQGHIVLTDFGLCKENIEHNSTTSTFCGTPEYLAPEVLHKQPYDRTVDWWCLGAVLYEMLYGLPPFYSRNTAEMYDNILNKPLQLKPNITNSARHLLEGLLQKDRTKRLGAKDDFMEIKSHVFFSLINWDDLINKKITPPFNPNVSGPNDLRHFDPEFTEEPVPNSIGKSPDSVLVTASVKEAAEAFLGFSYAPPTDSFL
Excerpt: as §1

[6] = molecular target: T3, PKD1 (Homo sapiens, UniProt Q15139); assay: Kinase profiling PKD1
T3 sequence (Q15139 1-912): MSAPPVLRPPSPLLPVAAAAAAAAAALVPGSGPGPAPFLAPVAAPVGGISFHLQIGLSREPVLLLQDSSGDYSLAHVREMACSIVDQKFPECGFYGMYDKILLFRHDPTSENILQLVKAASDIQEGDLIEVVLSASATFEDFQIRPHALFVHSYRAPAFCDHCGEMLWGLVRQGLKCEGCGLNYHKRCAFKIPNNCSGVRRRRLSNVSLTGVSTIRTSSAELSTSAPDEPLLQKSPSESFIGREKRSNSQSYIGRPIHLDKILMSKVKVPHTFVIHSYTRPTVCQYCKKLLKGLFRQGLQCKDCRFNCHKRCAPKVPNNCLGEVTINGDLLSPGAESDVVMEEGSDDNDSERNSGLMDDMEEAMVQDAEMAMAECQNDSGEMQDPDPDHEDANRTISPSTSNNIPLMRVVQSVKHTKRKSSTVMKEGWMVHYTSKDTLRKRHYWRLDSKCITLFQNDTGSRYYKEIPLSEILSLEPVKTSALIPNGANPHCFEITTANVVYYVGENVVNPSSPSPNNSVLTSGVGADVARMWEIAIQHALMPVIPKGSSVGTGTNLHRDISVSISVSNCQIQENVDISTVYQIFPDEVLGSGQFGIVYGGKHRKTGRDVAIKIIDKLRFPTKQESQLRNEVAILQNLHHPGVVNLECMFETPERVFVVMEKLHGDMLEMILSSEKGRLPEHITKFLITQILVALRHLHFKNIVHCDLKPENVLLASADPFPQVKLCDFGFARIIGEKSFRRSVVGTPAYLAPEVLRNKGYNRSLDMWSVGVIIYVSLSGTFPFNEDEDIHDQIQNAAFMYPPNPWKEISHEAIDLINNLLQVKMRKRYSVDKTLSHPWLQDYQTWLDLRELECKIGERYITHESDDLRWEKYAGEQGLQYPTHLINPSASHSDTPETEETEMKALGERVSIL
Excerpt: as §1

[7] = molecular target: STK33 (Homo sapiens, UniProt Q9BYT3); assay: Kinase profiling STK33; conditions: 100 micromolar inhibitor concentration; 100 is no change
Chain of STK33 (Q9BYT3 whole entry, species assumed): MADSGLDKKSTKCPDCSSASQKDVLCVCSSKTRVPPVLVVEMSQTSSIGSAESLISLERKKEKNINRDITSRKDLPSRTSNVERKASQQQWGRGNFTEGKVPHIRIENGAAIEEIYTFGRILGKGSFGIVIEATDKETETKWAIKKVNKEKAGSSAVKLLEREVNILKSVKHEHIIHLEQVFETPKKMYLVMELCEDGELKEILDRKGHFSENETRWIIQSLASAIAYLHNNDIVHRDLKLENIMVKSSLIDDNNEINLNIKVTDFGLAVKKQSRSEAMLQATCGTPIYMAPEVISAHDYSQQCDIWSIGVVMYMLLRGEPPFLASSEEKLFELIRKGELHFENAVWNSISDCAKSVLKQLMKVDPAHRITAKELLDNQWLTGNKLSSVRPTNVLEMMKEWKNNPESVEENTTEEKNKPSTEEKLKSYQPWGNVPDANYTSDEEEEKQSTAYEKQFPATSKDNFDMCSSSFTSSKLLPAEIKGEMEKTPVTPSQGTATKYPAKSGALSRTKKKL
Excerpt: as §1

[8] = molecular target: CHK2 (Homo sapiens, UniProt O96017); assay: Kinase profiling CHK2
Chain of CHK2 (O96017 whole entry, species assumed): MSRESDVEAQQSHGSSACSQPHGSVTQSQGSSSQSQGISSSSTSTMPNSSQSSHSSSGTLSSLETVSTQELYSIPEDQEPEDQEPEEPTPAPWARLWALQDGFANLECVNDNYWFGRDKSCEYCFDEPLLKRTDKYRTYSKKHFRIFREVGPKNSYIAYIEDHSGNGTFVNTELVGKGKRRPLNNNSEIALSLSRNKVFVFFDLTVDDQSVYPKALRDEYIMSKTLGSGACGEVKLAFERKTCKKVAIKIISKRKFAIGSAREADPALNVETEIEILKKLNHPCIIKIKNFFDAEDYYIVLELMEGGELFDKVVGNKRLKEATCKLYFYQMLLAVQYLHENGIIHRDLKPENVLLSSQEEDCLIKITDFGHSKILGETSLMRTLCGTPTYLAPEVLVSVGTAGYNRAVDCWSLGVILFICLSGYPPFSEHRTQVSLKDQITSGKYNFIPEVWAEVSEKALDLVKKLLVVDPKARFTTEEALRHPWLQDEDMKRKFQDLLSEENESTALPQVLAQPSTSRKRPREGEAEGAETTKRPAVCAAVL
Excerpt: as §1

[9] = molecular target: DYRK1A (Homo sapiens, UniProt Q13627); assay: DYRK 1A assay (kinase profiling)
Procedure: Assays are stopped by addition of 5 μl of 0.5 M (3%) orthophosphoric acid and then harvested onto P81 Unifilter plates with a wash buffer of 50 mM orthophosphoric acid.
as §1

[10] = molecular target: EF2K (Homo sapiens, UniProt O00418); assay: Kinase profiling EF2K
Excerpt: as §1

[11] = molecular target: HIPK2 (Homo sapiens, UniProt Q9H2X6); assay: Kinase profiling HIPK2
Excerpt: as §1

[12] = molecular target: T4, TAK1 (Homo sapiens, UniProt O43318); assay: Kinase profiling TAK1
T4 sequence (O43318 1-303 limits assumed): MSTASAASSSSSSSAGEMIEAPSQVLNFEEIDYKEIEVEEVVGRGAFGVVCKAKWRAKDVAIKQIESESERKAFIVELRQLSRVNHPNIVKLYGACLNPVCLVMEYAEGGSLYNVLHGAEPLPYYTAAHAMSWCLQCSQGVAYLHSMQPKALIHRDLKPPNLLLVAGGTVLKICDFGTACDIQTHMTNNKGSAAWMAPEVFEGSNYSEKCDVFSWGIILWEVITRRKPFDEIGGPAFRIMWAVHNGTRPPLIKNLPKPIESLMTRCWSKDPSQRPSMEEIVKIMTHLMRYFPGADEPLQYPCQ
T4 sequence (Q15750 437-504 partner limits assumed): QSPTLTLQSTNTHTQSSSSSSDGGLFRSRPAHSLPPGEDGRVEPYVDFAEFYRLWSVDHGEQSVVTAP
Excerpt: as §1

[13] = molecular target: JAK2 (Homo sapiens, UniProt O60674); assay: Kinase profiling JAK2
Chain of JAK2 (O60674 whole entry, species assumed): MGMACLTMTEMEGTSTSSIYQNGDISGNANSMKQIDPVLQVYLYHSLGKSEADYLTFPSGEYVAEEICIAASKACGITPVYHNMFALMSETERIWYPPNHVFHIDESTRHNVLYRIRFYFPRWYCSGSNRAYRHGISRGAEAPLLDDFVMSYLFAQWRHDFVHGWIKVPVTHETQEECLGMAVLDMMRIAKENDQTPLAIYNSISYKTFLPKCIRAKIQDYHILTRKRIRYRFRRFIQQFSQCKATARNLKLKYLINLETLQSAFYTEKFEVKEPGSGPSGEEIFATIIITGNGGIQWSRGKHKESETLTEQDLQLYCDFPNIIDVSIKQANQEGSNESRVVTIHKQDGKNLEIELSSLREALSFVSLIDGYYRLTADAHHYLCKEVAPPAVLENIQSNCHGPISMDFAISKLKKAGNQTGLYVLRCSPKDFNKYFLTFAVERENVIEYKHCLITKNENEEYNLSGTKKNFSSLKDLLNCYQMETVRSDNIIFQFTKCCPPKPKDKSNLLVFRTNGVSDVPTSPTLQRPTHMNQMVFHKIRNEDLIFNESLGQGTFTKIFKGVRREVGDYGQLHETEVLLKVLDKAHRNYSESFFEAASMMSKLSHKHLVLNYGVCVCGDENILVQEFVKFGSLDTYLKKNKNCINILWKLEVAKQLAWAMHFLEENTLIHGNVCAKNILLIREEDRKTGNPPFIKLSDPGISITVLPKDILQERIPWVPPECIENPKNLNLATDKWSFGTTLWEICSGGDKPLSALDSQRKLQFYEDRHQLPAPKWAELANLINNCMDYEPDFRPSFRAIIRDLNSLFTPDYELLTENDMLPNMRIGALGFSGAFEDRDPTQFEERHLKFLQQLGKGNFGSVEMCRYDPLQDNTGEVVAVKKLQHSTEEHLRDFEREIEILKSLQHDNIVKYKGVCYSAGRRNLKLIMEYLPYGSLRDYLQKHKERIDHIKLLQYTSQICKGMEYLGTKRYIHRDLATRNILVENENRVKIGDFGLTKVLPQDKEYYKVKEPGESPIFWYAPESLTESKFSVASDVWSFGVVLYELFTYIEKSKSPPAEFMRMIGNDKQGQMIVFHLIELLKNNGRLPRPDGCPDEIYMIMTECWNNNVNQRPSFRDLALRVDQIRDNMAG
Excerpt: as §1

[14] = molecular target: TrkA (Homo sapiens, UniProt P04629); assay: Kinase profiling TrkA
Chain of TrkA (P04629 33-796, species assumed): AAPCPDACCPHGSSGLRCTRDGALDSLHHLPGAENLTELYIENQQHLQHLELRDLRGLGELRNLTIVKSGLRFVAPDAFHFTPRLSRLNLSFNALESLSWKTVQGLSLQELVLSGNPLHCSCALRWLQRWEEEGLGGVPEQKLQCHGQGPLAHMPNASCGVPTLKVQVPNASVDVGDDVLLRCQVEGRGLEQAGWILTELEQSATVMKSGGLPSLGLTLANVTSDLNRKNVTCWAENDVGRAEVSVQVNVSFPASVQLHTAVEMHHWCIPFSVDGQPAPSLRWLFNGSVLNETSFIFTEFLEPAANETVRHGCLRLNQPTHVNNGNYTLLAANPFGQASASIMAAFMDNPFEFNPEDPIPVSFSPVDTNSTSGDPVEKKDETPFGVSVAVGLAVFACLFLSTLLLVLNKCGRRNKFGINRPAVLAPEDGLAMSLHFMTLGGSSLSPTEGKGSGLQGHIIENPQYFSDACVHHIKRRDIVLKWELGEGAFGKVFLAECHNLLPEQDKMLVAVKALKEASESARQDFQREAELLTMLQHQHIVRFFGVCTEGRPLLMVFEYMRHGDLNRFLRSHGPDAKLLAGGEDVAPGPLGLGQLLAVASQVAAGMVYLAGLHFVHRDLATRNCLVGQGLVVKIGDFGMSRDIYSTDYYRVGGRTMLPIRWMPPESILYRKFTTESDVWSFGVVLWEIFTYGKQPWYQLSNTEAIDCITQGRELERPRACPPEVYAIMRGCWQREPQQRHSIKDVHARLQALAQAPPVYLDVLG
Excerpt: as §1

[15] = tested on: VEG-FR; assay: Kinase profiling VEG-FR
Excerpt: as §1

[16] = 100 micromolar inhibitor concentration, 100 is no change
[17] = 100 micromolar inhibitor, 100 = no change

Chain of MKK1 (Q02750 whole entry, species assumed): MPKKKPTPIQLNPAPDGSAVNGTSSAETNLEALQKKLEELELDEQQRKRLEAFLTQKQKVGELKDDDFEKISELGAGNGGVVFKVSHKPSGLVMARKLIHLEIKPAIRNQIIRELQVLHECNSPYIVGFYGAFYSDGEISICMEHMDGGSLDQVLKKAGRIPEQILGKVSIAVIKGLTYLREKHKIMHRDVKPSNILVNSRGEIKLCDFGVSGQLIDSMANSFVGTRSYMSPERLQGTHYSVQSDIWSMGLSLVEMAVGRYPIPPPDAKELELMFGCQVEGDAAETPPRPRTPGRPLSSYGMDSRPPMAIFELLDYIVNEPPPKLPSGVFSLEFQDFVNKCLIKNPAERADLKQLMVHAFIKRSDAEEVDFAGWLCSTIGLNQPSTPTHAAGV

With `CC(=O)Nc1cccc(C(=O)Nc2nc3ccc(O)cc3s2)c1` [Compound 03-58] the “residual kinase activity, MKK1” value [1, 16] was 52, the “residual kinase activity, ERK2” value [2] was 104 and the “residual kinase activity, JNK3” value [3] was 51. The “residual kinase activity, p38g MAPK” value [4] was 64, the “residual kinase activity, SGK1” value [5, 16] was 41 and the “residual kinase activity, PKD1” value [6, 16] was 54. For the same molecule, the “residual kinase activity, STK33” value [7] was 45.
With `CC(=O)NC(C)C(=O)Nc1nc2ccc(C(F)(F)F)cc2s1` (stereo not shown) [Compound 03-80] the “residual kinase activity, MKK1” value [1, 16] was 80, the “residual kinase activity, ERK2” value [2] was 101 and the “residual kinase activity, JNK3” value [3] was 79. The “residual kinase activity, p38g MAPK” value [4] was 83, the “residual kinase activity, SGK1” value [5, 16] was 55 and the “residual kinase activity, PKD1” value [6, 16] was 82. For the same molecule, the “residual kinase activity, STK33” value [7] was 60.
In the case of `COc1ccc2sc(NC(=O)c3cccc(C(N)=O)c3)nc2c1` [Compound 03-113], the “residual kinase activity, MKK1” value [1, 16] is reported as 119, the “residual kinase activity, SGK1” value [5, 16] is reported as 88 and the “residual kinase activity, PKD1” value [6, 16] is reported as 110. For the same molecule, the “residual kinase activity, CHK2” value [8, 16] was 98, the “residual kinase activity, DYRK1A” value [9, 16] was 51 and the “residual kinase activity, EF2K” value [10, 16] was 127. The “residual kinase activity, HIPK2” value [11, 16] was 96, the “residual kinase activity, TAK1” value [12, 16] was 35 and the “residual kinase activity, JAK2” value [13, 16] was 113. For the same molecule, the “residual kinase activity, TrkA” value [14, 16] was 87 and the “residual kinase activity, VEG-FR” value [15, 16] was 86.
`CC(=O)Nc1ccccc1C(=O)Nc1nc2ccc(O)cc2s1` [Compound 08-39] was tested, and the “residual kinase activity, MKK1” value [1, 16] was 106, the “residual kinase activity, ERK2” value [2] was 68 and the “residual kinase activity, JNK3” value [3] was 53. The “residual kinase activity, p38g MAPK” value [4] was 90, the “residual kinase activity, SGK1” value [5, 16] was 35 and the “residual kinase activity, PKD1” value [6, 16] was 32. For the same molecule, the “residual kinase activity, STK33” value [7] was 61.
In the case of `COc1ccc2nc(C(=O)Nc3ccccc3)sc2c1` [Compound 13-03], the “residual kinase activity, MKK1” value [1, 17] is reported as 70, the “residual kinase activity, SGK1” value [5, 17] is reported as 91 and the “residual kinase activity, PKD1” value [6, 17] is reported as 113. For the same molecule, the “residual kinase activity, CHK2” value [8, 17] was 92, the “residual kinase activity, DYRK1A” value [9, 17] was 45 and the “residual kinase activity, EF2K” value [10, 17] was 110. The “residual kinase activity, HIPK2” value [11, 17] was 96, the “residual kinase activity, TAK1” value [12, 17] was 96 and the “residual kinase activity, JAK2” value [13, 17] was 93. For the same molecule, the “residual kinase activity, TrkA” value [14, 17] was 55 and the “residual kinase activity, VEG-FR” value [15, 17] was 87.
`CC(=O)Nc1nc2ccc([N+](=O)[O-])cc2s1` [Compound 13-10] showed a remaining activity at 100 µM ([1]; 100 micromolar inhibitor concentration, 100 is no change, read-out: residual kinase activity, MKK1) of 62%, a remaining activity at 100 µM ([5]; 100 micromolar inhibitor concentration, 100 is no change, read-out: residual kinase activity, SGK1) of 58% and a remaining activity at 100 µM ([6]; 100 micromolar inhibitor concentration, 100 is no change, read-out: residual kinase activity, PKD1) of 82%. It also gave a remaining activity at 100 µM ([8]; 100 micromolar inhibitor concentration, 100 is no change, read-out: residual kinase activity, CHK2) of 59%, a remaining activity at 100 µM ([9]; 100 micromolar inhibitor concentration, 100 is no change, read-out: residual kinase activity, DYRK1A) of 6% and a remaining activity at 100 µM ([10]; 100 micromolar inhibitor concentration, 100 is no change, read-out: residual kinase activity, EF2K) of 95%. For the same molecule, the remaining activity at 100 µM ([11]; 100 micromolar inhibitor concentration, 100 is no change, read-out: residual kinase activity, HIPK2) was 8%, the remaining activity at 100 µM ([12]; 100 micromolar inhibitor concentration, 100 is no change, read-out: residual kinase activity, TAK1) was 58% and the remaining activity at 100 µM ([13]; 100 micromolar inhibitor concentration, 100 is no change, read-out: residual kinase activity, JAK2) was 91%. For the same molecule, the remaining activity at 100 µM ([14]; 100 micromolar inhibitor concentration, 100 is no change, read-out: residual kinase activity, TrkA) was 98% and the “residual kinase activity, VEG-FR” value [15, 16] was 5.
In the case of `COc1cccc(NC(=O)Nc2nc3cc(O)ccc3s2)c1` [Compound 13-62], the “residual kinase activity, MKK1” value [1, 17] is reported as 15, the “residual kinase activity, SGK1” value [5, 17] is reported as 21 and the “residual kinase activity, PKD1” value [6, 17] is reported as 41. The “residual kinase activity, CHK2” value [8, 17] was 18, the “residual kinase activity, DYRK1A” value [9, 17] was 7 and the “residual kinase activity, EF2K” value [10, 17] was 85. For the same molecule, the “residual kinase activity, HIPK2” value [11, 17] was 23, the “residual kinase activity, TAK1” value [12, 17] was 11 and the “residual kinase activity, JAK2” value [13, 17] was 31. For the same molecule, the “residual kinase activity, TrkA” value [14, 17] was 9 and the “residual kinase activity, VEG-FR” value [15, 17] was 7.
In the case of `COc1ccc2sc(NC(=O)c3ccc(NC(C)=O)cc3)nc2c1` [MS:LY-2-77], the “residual kinase activity, MKK1” value [1, 16] is reported as 95, the “residual kinase activity, ERK2” value [2] is reported as 105 and the “residual kinase activity, JNK3” value [3] is reported as 88. For the same molecule, the “residual kinase activity, p38g MAPK” value [4] was 121, the “residual kinase activity, SGK1” value [5, 16] was 101 and the “residual kinase activity, PKD1” value [6, 16] was 114. The “residual kinase activity, STK33” value [7] was 99.
With `COc1ccc2sc(NC(=O)c3cccc(NC(C)=O)c3)nc2c1` [MS:LY-2-85] the “residual kinase activity, MKK1” value [1, 16] was 83, the “residual kinase activity, ERK2” value [2] was 98 and the “residual kinase activity, JNK3” value [3] was 62. For the same molecule, the “residual kinase activity, p38g MAPK” value [4] was 80, the “residual kinase activity, SGK1” value [5, 16] was 75 and the “residual kinase activity, PKD1” value [6, 16] was 49. For the same molecule, the “residual kinase activity, STK33” value [7] was 75.
